# Data taken from patent US20240199546A1, “INHIBITORS OF SOLUTE CARRIER FAMILY 6A MEMBER 19 (SLC6A19) AND METHODS OF USE THEREOF” (Maze Therapeutics, Inc., priority 2022, published 2024).
# Target: T1, human SLC6A19 and TMEM27 (Homo sapiens, UniProt Q695T7)
# T1 construct: expressed in transfected cells
# T1 sequence (Q695T7 1-634): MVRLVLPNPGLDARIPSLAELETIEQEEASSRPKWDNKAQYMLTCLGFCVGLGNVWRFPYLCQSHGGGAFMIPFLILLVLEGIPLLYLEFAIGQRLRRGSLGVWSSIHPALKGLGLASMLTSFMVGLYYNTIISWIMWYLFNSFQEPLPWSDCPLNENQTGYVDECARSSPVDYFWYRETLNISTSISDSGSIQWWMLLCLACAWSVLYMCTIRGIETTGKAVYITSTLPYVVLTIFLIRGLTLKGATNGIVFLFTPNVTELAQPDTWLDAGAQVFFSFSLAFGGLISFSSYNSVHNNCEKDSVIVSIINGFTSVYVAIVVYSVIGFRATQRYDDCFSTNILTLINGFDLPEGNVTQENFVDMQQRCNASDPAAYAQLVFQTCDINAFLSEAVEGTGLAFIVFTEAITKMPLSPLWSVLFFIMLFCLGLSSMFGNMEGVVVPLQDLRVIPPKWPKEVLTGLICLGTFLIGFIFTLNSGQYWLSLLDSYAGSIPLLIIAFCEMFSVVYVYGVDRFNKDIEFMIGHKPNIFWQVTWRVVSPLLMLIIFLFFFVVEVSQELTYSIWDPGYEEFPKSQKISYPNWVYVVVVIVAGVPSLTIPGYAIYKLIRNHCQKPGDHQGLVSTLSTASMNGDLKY
# T1 sequence (Q9HBJ8 15-222 partner): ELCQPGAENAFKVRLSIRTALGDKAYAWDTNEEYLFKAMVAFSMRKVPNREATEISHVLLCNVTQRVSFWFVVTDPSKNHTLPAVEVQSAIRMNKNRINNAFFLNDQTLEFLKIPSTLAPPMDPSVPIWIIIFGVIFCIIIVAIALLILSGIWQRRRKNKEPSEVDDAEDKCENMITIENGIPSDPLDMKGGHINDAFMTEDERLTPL
# Test: Radiolabelled (3H) leucine uptake in CHO cells with doxycycline-inducible expression of human SLC6A19 and TMEM27 (Example B-1)
# Format: cell-based
# Details: CHO cells with doxycycline-inducible expression of human SLC6A19 and TMEM27, read-out: SLC6A19_Radioligand Uptake Assay IC50
# Method in brief: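 CHO cells were induced with doxycycline for 18 h at 37 °C, washed in HBSS, then exposed to compounds for 1 h: 8-point, 3-fold dilutions in duplicate, 0.5% DMSO final. Uptake measured by scintillation counting after 2 h shaking. Activity normalized with positive control as 0% and DMSO as 100%.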
row,Structure (SMILES),IC50
1,"[2H]C([2H])([2H])C1(C(=O)NCc2cc3cc(Cl)c(OCc4cscn4)cc3[nH]2)CC1 [Compound 483, N-((5-chloro-6-(thiazol-4-ylmethoxy)-1H-indol-2-yl)methyl)-1-(methyl-d3)cyclopropane-1-carboxamide]",170 nM
2,"O=C(NCc1cc2cc(Cl)c(OCc3cscn3)cc2[nH]1)C1CCC1 [Compound 490, N-((5-chloro-6-(thiazol-4-ylmethoxy)-1H-indol-2-yl)methyl)cyclobutanecarboxamide]",178 nM
3,"O=C(NCc1cc2ccc(OCc3ccon3)cc2[nH]1)N1CCOCC1 [Compound 199, N-((6-(isoxazol-3-ylmethoxy)-1H-indol-2-yl)methyl)morpholine-4-carboxamide]",1370 nM
4,"CC1(C(=O)NCc2cc3cc(Cl)c(CCn4nccn4)cc3[nH]2)CC1 [Compound 586, N-((6-(2-(2H-1,2,3-triazol-2-yl)ethyl)-5-chloro-1H-indol-2-yl)methyl)-1-methylcyclopropane-1-carboxamide]",176 nM
5,"C[C@@H](O)C(=O)NCc1cc2cc(F)c(OCc3cscn3)cc2[nH]1 [Compound 282, (R)-N-((5-fluoro-6-(thiazol-4-ylmethoxy)-1H-indol-2-yl)methyl)-2-hydroxypropanamide]",2670 nM
6,"CC(F)C(=O)NCc1cc2cc(Cl)c(OCc3cscn3)cc2[nH]1 (single isomer, unassigned) [Compound 444, (R or S)-N-((5-chloro-6-(thiazol-4-ylmethoxy)-1H-indol-2-yl)methyl)-2-fluoropropanamide]",77.4 nM
7,"O=C(NCc1cc2cc(F)c(OCc3ccon3)cc2[nH]1)C1(C(F)(F)F)CC1 [Compound 139, N-((5-fluoro-6-(isoxazol-3-ylmethoxy)-1H-indol-2-yl)methyl)-1-(trifluoromethyl)cyclopropane-1-carboxamide]",310 nM
8,"Cc1cc(COc2cc3[nH]c(CNC(=O)[C@@]4(C)CCCO4)cc3cc2Cl)on1 [Compound 307, (R)-N-((5-chloro-6-((3-methylisoxazol-5-yl)methoxy)-1H-indol-2-yl)methyl)-2-methyltetrahydrofuran-2-carboxamide]",579 nM
9,"C[C@@H]1CCCN1C(=O)NCc1cc2cc(F)c(OCc3cscn3)cc2[nH]1 [Compound 386, (R)-N-((5-fluoro-6-(thiazol-4-ylmethoxy)-1H-indol-2-yl)methyl)-2-methylpyrrolidine-1-carboxamide]",174 nM
10,"CN(Cc1cn[nH]c1)C(=O)NCc1cc2cc(Cl)c(OCc3cscn3)cc2[nH]1 [Compound 626, 1-((1H-pyrazol-4-yl)methyl)-3-((5-chloro-6-(thiazol-4-ylmethoxy)-1H-indol-2-yl)methyl)-1-methylurea]",765 nM
11,"O=C(NCc1cc2cc(F)c(OCc3cocn3)cc2[nH]1)N1CCC1 [Compound 358, N-((5-fluoro-6-(oxazol-4-ylmethoxy)-1H-indol-2-yl)methyl)azetidine-1-carboxamide]",319 nM
12,"CC1(C(=O)NCc2cc3ccc(OCCC45CC(C4)C5)cc3[nH]2)CC1 [Compound 193, N-((6-(2-(bicyclo[1.1.1]pentan-1-yl)ethoxy)-1H-indol-2-yl)methyl)-1-methylcyclopropane-1-carboxamide]",9880 nM
13,"CO[C@H]1C[C@H](Oc2cc3[nH]c(CNC(C)=O)cc3cc2Cl)C1 [Compound 462, N-((5-chloro-6-((trans)-3-methoxycyclobutoxy)-1H-indol-2-yl)methyl)acetamide]",2000 nM
14,"O=C(NCc1cc2cc(Cl)c(OCc3ccon3)cc2[nH]1)N1CCC1 [Compound 79, N-((5-chloro-6-(isoxazol-3-ylmethoxy)-1H-indol-2-yl)methyl)azetidine-1-carboxamide]",272 nM
15,"Cc1cc(COc2cc3[nH]c(CNC(=O)N4CCCC4C(F)F)cc3cc2Cl)on1 (racemic) [Compound 375, (S)-N-((5-chloro-6-((3-methylisoxazol-5-yl)methoxy)-1H-indol-2-yl)methyl)-2-(difluoromethyl)pyrrolidine-1-carboxamide and (R)-N-((5-chloro-6-((3-methylisoxazol-5-yl)methoxy)-1H-indol-2-yl)methyl)-2-(difluoromethyl)pyrrolidine-1-carboxamide]",948 nM
16,"O=C(NCc1cc2cc(C(F)(F)F)c(OCc3ccon3)cc2[nH]1)N1CCC1 [Compound 477, N-((6-(isoxazol-3-ylmethoxy)-5-(trifluoromethyl)-1H-indol-2-yl)methyl)azetidine-1-carboxamide]",383 nM
17,"O=C(NCc1cc2cc(Cl)c(OCc3cscn3)cc2[nH]1)C(F)CF (racemic) [Compound 639, N-((5-chloro-6-(thiazol-4-ylmethoxy)-1H-indol-2-yl)methyl)-2,3-difluoropropanamide]",112 nM
18,"CC1(C(=O)NCc2cc3cc(Cl)c(CCn4ccnc4)cc3[nH]2)CC1 [Compound 589, N-((6-(2-(1H-imidazol-1-yl)ethyl)-5-chloro-1H-indol-2-yl)methyl)-1-methylcyclopropane-1-carboxamide]",4760 nM

# Continued by falling IC50, values first:
row,IC50,Structure (SMILES)
1,9830 nM,"CC1(C(=O)NCc2cc3ccc(OCC45CC(C4)C5)cc3[nH]2)CC1 [Compound 189, N-((6-(bicyclo[1.1.1]pentan-1-ylmethoxy)-1H-indol-2-yl)methyl)-1-methylcyclopropane-1-carboxamide]"
2,7110 nM,"Cc1cc(COc2cc3[nH]c(CNC(=O)[C@H]4COCCN4C)cc3cc2Cl)on1 [Compound 302, (R)-N-((5-chloro-6-((3-methylisoxazol-5-yl)methoxy)-1H-indol-2-yl)methyl)-4-methylmorpholine-3-carboxamide]"
3,2750 nM,"Cc1cc(COc2cc3[nH]c(CNC(=O)[C@@H]4CCN4)cc3cc2Cl)on1 [Compound 448, (S)-N-((5-chloro-6-((3-methylisoxazol-5-yl)methoxy)-1H-indol-2-yl)methyl)azetidine-2-carboxamide]"
4,1930 nM,"CC1(C(=O)NCc2cc3cc(Cl)c(OCC4CC(F)(F)C4)cc3[nH]2)CC1 [Compound 353, N-((5-chloro-6-((3,3-difluorocyclobutyl)methoxy)-1H-indol-2-yl)methyl)-1-methylcyclopropane-1-carboxamide]"
5,1350 nM,"CC(=O)NCc1cc2cc(Cl)c(OC[C@H]3CCOC3)cc2[nH]1 [Compound 464, (S)-N-((5-chloro-6-((tetrahydrofuran-3-yl)methoxy)-1H-indol-2-yl)methyl)acetamide]"
6,1090 nM,"CC1(C(=O)NCc2cc3cc(Cl)c(OCc4ccccc4O)cc3[nH]2)CC1 [Compound 203, N-((5-chloro-6-((2-hydroxybenzyl)oxy)-1H-indol-2-yl)methyl)-1-methylcyclopropane-1-carboxamide]"
7,968 nM,"CC(C)c1cc2cc(CNC(=O)C3(C)CC3)[nH]c2cc1OCc1cscn1 [Compound 186, N-((5-isopropyl-6-(thiazol-4-ylmethoxy)-1H-indol-2-yl)methyl)-1-methylcyclopropane-1-carboxamide]"
8,674 nM,"Cc1cc(COc2cc3[nH]c(CNC(=O)CO)cc3cc2Cl)on1 [Compound 242, N-((5-chloro-6-((3-methylisoxazol-5-yl)methoxy)-1H-indol-2-yl)methyl)-2-hydroxyacetamide]"
9,524 nM,"CC1CCN(C(=O)NCc2cc3cc(F)c(OCc4ccon4)cc3[nH]2)C1 (centres unmarked) [Compound 91, N-((5-fluoro-6-(isoxazol-3-ylmethoxy)-1H-indol-2-yl)methyl)-3-methylpyrrolidine-1-carboxamide]"
10,392 nM,"Cc1cc(CNc2cc3[nH]c(CNC(=O)N4CCCC4)cc3cc2Cl)no1 [Compound 469, N-((5-chloro-6-(((5-methylisoxazol-3-yl)methyl)amino)-1H-indol-2-yl)methyl)pyrrolidine-1-carboxamide]"
11,297 nM,"CCc1cc2cc(CNC(=O)C3(C)CC3)[nH]c2cc1OCc1ccon1 [Compound 61, N-((5-ethyl-6-(isoxazol-3-ylmethoxy)-1H-indol-2-yl)methyl)-1-methylcyclopropane-1-carboxamide]"
12,220 nM,"Cc1cc(CCc2cc3[nH]c(CNC(=O)C4(C)CC4)cc3cc2F)no1 [Compound 593, N-((5-fluoro-6-(2-(5-methylisoxazol-3-yl)ethyl)-1H-indol-2-yl)methyl)-1-methylcyclopropane-1-carboxamide]"
13,172 nM,"Cc1cc(COc2cc3[nH]c(CNC(=O)[C@H](C)O)cc3cc2Cl)on1 [Compound 284, (S)-N-((5-chloro-6-((3-methylisoxazol-5-yl)methoxy)-1H-indol-2-yl)methyl)-2-hydroxypropanamide]"
14,148 nM,"O=C(NCc1cc2cc(Cl)c(OCc3cscn3)cc2[nH]1)[C@@H]1CCO1 [Compound 315, (S)-N-((5-chloro-6-(thiazol-4-ylmethoxy)-1H-indol-2-yl)methyl)oxetane-2-carboxamide]"
